Values quoted from earlier work as cited in EP3888461A1, “NON-AQUEOUS DISPERSIONS COMPRISING INHIBITORS OF HYDROXYPHENYLPYRUVATE-DIOXYGENASE AND CITRIC ACID” (Bayer AG, priority 2020, dated 2021).

details: commercially available brands of surfactants of structure (II)

Log P	Substance
1.47	Tween® 40
2.71	Tween® 21
-0.55	Tween® 20
1.99	Tween® 80
0.26	Polyoxyethylene (16) sorbitan monolaurate [Tween® 24]
2.48	Tween® 60
